Results published in patent US20240174723A1, “STAPLED ANTIMICROBIAL PEPTIDES (STAMPS) AND USES THEREOF” (Lytica Therapeutics, Inc., priority 2021, published 2024).
≈ marks a conversion by molar mass, not a printed value. Positions of bridges follow the written chain, without caps; N, C: chain ends. Non-standard residues stand in square brackets, D forms with d. Residues, ends and D or L forms follow the SMILES beside them. Phe(4-CF3) = N[C@@H](Cc1ccc(C(F)(F)F)cc1)C(=O)O; Phe(4-F) = N[C@@H](Cc1ccc(F)cc1)C(=O)O; S5 = C=CCCC[C@](C)(N)C(=O)O; Pra = C#CC[C@H](N)C(=O)O; Dab = NCC[C@H](N)C(=O)O

How the values were obtained:
E. coli = type: cell-based, Escherichia coli
Method in brief: (§1)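 MIC by CLSI-adapted microbroth dilution; MHB or MHB II; inoculum 5×10^5 CFU/ml final; 20-24 h, 37 °C; endpoint = no visible growth.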

A. baumannii = type: cell-based, Acinetobacter baumannii
Method in brief: as §1

P. aeruginosa = type: cell-based, Pseudomonas aeruginosa
Method in brief: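 MIC taken as lowest peptide concentration with no visible growth after 20-24 h at 37 °C. Peptide serial dilutions from water stocks met P. aeruginosa inoculum (5×10^5 CFU/ml final) in MHB or MHB II, per a CLSI-adapted microbroth protocol.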

K. pneumoniae = type: cell-based, Klebsiella pneumoniae
Method in brief: as §1

S. aureus = type: cell-based, Staphylococcus aureus
Method in brief: as §1

in vitro [1] = type: cell-based; conditions: human
Experimental: Cell culture: RPTEC were maintained in MEM media supplemented with growth factors. HEPG2 cell line was maintained in Eagle's Minimum Essential Medium (EMEM) supplemented with fetal bovine serum to a final concentration of 10%.
90 minute cytotoxicity assay: Cells were plated in a 96-well format, and after overnight incubation, media was replaced with fresh media. Serial dilutions of StAMPs from a 5 mg/mL water stock, or vehicle, were added to the cells in a final volume of 100 μl. After incubating at 37° C. for 90 min, 50 μl of cell culture media was transferred to a clear 96-well plate, incubated with 50 μl of lactate dehydrogenase (LDH) assay reagent for 10 min, and absorbance measured at 490 nm on a microplate reader.
Renal toxicity was measured after 90 minutes of incubation, while liver toxicity was measured after 48 hours of incubation with StAMPs. N/A=not tested. The following apply to all peptides (i.e., StAMPs) listed in Tables A-C: Crosslinks (X^1—X^2 and X^3—X^4): (alk); N-terminus: —NH2; C-terminus: amidated with —NH2; counterion: Cl^−. The following apply to all peptides (i.e., StAMPs) listed in Table D: Crosslinks (X^1—X^2 and X^3—X^4): (alk); N-terminus: —NH2; C-terminus: as shown in table; counterion: Cl^−.
StAMP Micelle Formulation: DSPE-MPEG(2000) was suspended in buffered saline at 50-100 mg/mL overnight. StAMP stock solutions at 5-20 mg/mL in buffered saline were prepared and equal volumes of micelle and StAMP stock solution were mixed at the desired StAMP:Lipid ratio. Suspensions were allowed to sit for 5-10 minutes at room temperature before being used in in vitro and in vivo assays.
In Table E, the StAMP is StAMP 4 (Table A) and “Lipid”=DSPE-MPEG(2000).

in vitro [2] = type: cell-based; conditions: human, Inhibitory Concentration at 50% Cytotoxicity (IC50) Human Liver Cells (HepG2)
Method in brief: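 Cytotoxicity read by CellTiter-Glo luminescence after 48 h at 37 °C exposure to serially diluted StAMPs or vehicle. HepG2 cells were grown in EMEM plus 10% FBS and given 4 h to attach before dosing; peptides came from a 5 mg/mL aqueous stock.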

Structure (SMILES)	Minimum Inhibitory Concentration (MIC) E. coli (E. coli) [µg/mL]	Minimum Inhibitory Concentration (MIC) A. baumannii (A. baumannii) [µg/mL]	Minimum Inhibitory Concentration (MIC) P. aeruginosa (P. aeruginosa) [µg/mL]	Minimum Inhibitory Concentration (MIC) K. pneumoniae (K. pneumoniae) [µg/mL]	Minimum Inhibitory Concentration (MIC) S. aureus (S. aureus) [µg/mL]	IC50 at 90 min (in vitro [1]) [µg/mL]	IC50 at 48 hours (in vitro [2]) [µg/mL]
CC(C)[C@@H]1NC(=O)[C@H](C(C)C)NC(=O)[C@@](C)(NC(=O)[C@H](C)NC(=O)[C@H](CCCCN)NC(=O)CNC(=O)[C@H](Cc2ccc(F)cc2)NC(=O)[C@H](CCCCN)NC(=O)[C@H](CCCCN)NC(=O)[C@H](CCCCN)NC(=O)[C@H](CCCCN)NC(=O)[C@H](Cc2c[nH]cn2)NC(=O)[C@]2(C)CCCC=CCCC[C@](C)(NC(=O)CN)C(=O)NCC(=O)N[C@@H](CCCCN)C(=O)N[C@@H](Cc3ccc(F)cc3)C(=O)N2)CCCC=CCCC[C@@](C)(C(=O)N[C@@H](C)C(=O)N[C@@H](CCCCN)C(=O)N[C@@H](CCCCN)C(N)=O)NC(=O)[C@H](CCC(=O)O)NC1=O [compound 29] (H-G[S5]GK[Phe(4-F)][S5]HKKKK[Phe(4-F)]GKA[S5]VVE[S5]AKK-NH2; staple 2-6, 16-20)	2	2	4	4	>64	86 (≈ 32.4 µM)	
CC(C)[C@@H]1NC(=O)[C@H](C(C)C)NC(=O)[C@@](C)(NC(=O)[C@H](C)NC(=O)[C@H](CCCCN)NC(=O)CNC(=O)[C@H](Cc2ccc(C(F)(F)F)cc2)NC(=O)[C@H](CCCCN)NC(=O)[C@H](CCCCN)NC(=O)[C@H](CCCCN)NC(=O)[C@H](CCCCN)NC(=O)[C@H](Cc2c[nH]cn2)NC(=O)[C@]2(C)CCCC=CCCC[C@](C)(NC(=O)CN)C(=O)NCC(=O)N[C@@H](CCCCN)C(=O)N[C@@H](Cc3ccc(C(F)(F)F)cc3)C(=O)N2)CCCC=CCCC[C@@](C)(C(=O)N[C@@H](C)C(=O)N[C@@H](CCCCN)C(=O)N[C@@H](CCCCN)C(N)=O)NC(=O)[C@H](CCC(=O)O)NC1=O [compound 30] (H-G[S5]GK[Phe(4-CF3)][S5]HKKKK[Phe(4-CF3)]GKA[S5]VVE[S5]AKK-NH2; staple 2-6, 16-20)	2	2	4	4	32	17 (≈ 6.18 µM)	
CC(C)[C@@H]1NC(=O)[C@@](C)(NC(=O)[C@H](C)NC(=O)[C@H](CCCCN)NC(=O)CNC(=O)[C@H](Cc2ccccc2)NC(=O)[C@H](CCCCN)NC(=O)[C@H](CCCCN)NC(=O)[C@H](CCCCN)NC(=O)[C@H](CCN)NC(=O)[C@H](CCCCN)NC(=O)[C@]2(C)CCCC=CCCC[C@](C)(NC(=O)CN)C(=O)NCC(=O)N[C@@H](CCCCN)C(=O)N[C@@H](Cc3ccccc3)C(=O)N2)CCCC=CCCC[C@@](C)(C(=O)N[C@@H](C)C(=O)N[C@@H](CCCCN)C(=O)N[C@@H](CCCCN)C(N)=O)NC(=O)[C@H](CCC(=O)O)NC(=O)CNC1=O [compound 38] (H-G[S5]GKF[S5]K[Dab]KKKFGKA[S5]VGE[S5]AKK-NH2; staple 2-6, 16-20)	2	2	2	4	>64	117 (≈ 46.1 µM)	
CC(C)[C@@H]1NC(=O)[C@@](C)(NC(=O)[C@H](C)NC(=O)[C@H](CCCCN)NC(=O)CNC(=O)[C@H](Cc2ccccc2)NC(=O)[C@H](CCCCN)NC(=O)[C@H](CCCCN)NC(=O)[C@H](CCCCN)NC(=O)[C@H](CCCCN)NC(=O)[C@H](CCCCN)NC(=O)[C@]2(C)CCCC=CCCC[C@](C)(NC(=O)CN)C(=O)NCC(=O)N[C@@H](CCN)C(=O)N[C@@H](Cc3ccccc3)C(=O)N2)CCCC=CCCC[C@@](C)(C(=O)N[C@@H](C)C(=O)N[C@@H](CCCCN)C(=O)N[C@@H](CCCCN)C(N)=O)NC(=O)[C@H](CCC(=O)O)NC(=O)CNC1=O [compound 37] (H-G[S5]G[Dab]F[S5]KKKKKFGKA[S5]VGE[S5]AKK-NH2; staple 2-6, 16-20)	2	2	2	4	>64	113 (≈ 44.6 µM)	
CC(C)[C@@H]1NC(=O)[C@@](C)(NC(=O)[C@H](C)NC(=O)[C@H](CCCCN)NC(=O)CNC(=O)[C@H](Cc2ccccc2)NC(=O)[C@H](CCCCN)NC(=O)[C@H](CCCCN)NC(=O)[C@H](CCCCN)NC(=O)[C@H](CCCCN)NC(=O)[C@H](CCCCN)NC(=O)[C@]2(C)CCCC=CCCC[C@](C)(NC(=O)CN)C(=O)NCC(=O)N[C@@H](CCCCN)C(=O)N[C@@H](Cc3ccccc3)C(=O)N2)CCCC=CCCC[C@@](C)(C(=O)N[C@@H](C)C(=O)N[C@@H](CCCCN)C(=O)N[C@@H](CCCCN)C(=O)NCC(=O)NCC(=O)N[C@@H](CCC(=O)O)C(N)=O)NC(=O)[C@H](CCC(=O)O)NC(=O)[C@H](CO)NC1=O [compound 93] (H-G[S5]GKF[S5]KKKKKFGKA[S5]VSE[S5]AKKGGE-NH2; staple 2-6, 16-20)	2	1	1	32	>64		> 200
C#CC[C@H](NC(=O)[C@H](CCC(=O)O)NC(=O)CNC(=O)CNC(=O)[C@H](CCCCN)NC(=O)[C@H](CCCCN)NC(=O)[C@H](C)NC(=O)[C@]1(C)CCCC=CCCC[C@](C)(NC(=O)[C@H](C)NC(=O)[C@H](CCCCN)NC(=O)CNC(=O)[C@H](Cc2ccccc2)NC(=O)[C@H](CCCCN)NC(=O)[C@H](CCCCN)NC(=O)[C@H](CCCCN)NC(=O)[C@H](CCCCN)NC(=O)[C@H](CCCCN)NC(=O)[C@]2(C)CCCC=CCCC[C@](C)(NC(=O)CN)C(=O)NCC(=O)N[C@@H](CCCCN)C(=O)N[C@@H](Cc3ccccc3)C(=O)N2)C(=O)N[C@@H](C(C)C)C(=O)NCC(=O)N[C@@H](CCC(=O)O)C(=O)N1)C(N)=O [compound 95] (H-G[S5]GKF[S5]KKKKKFGKA[S5]VGE[S5]AKKGGE[Pra]-NH2; staple 2-6, 16-20)	4	2	4	64	>64		> 200
CC(C)[C@@H]1NC(=O)[C@@](C)(NC(=O)[C@H](C)NC(=O)[C@H](CCCCN)NC(=O)CNC(=O)[C@H](Cc2ccccc2)NC(=O)[C@H](CCCCN)NC(=O)[C@H](CCCCN)NC(=O)[C@H](CCCCN)NC(=O)[C@H](CCCCN)NC(=O)[C@H](CCCCN)NC(=O)[C@]2(C)CCCC=CCCC[C@](C)(NC(=O)CN)C(=O)NCC(=O)N[C@@H](CCCCN)C(=O)N[C@@H](Cc3ccccc3)C(=O)N2)CCCC=CCCC[C@@](C)(C(=O)N[C@@H](CO)C(=O)N[C@@H](CCCCN)C(=O)N[C@@H](CCCCN)C(=O)NCC(=O)NCC(=O)N[C@@H](CCC(=O)O)C(N)=O)NC(=O)[C@H](CCC(=O)O)NC(=O)CNC1=O [compound 94] (H-G[S5]GKF[S5]KKKKKFGKA[S5]VGE[S5]SKKGGE-NH2; staple 2-6, 16-20)	8	4	2	>64	64		> 200
